From the NIST ThermoML archive (doi:10.1016/j.fluid.2018.01.015)
± gives the expanded uncertainty stated by the source.

Experiments:
[1] = Crystal; DTA
[2] = Molar enthalpy of transition or fusion; conditions: Crystal; DSC

For `Cc1cc(C)c(C(=O)P(=O)(c2ccccc2)c2ccccc2)c(C)c1` [(2,4,6-trimethylbenzoyl) diphenylphosphine oxide], the Normal melting temperature [1] was 92.66 ± 0.39 °C and the “Molar enthalpy of transition or fusion” value [2] was 6.03 ± 0.172 kcal/mol.
